Source: patent publication US5686477A, “5-(arloxymethyl)oxazolines” (Adir et Compagnie, priority 1994, dated 1997)

How the values were obtained:
imidazoline I2-receptors = test: Binding to imidazoline I2-receptors, displacement of [3H]-idazoxane (in vitro); settings: [3H]-idazoxane + 10 μM norepinephrine; rabbit renal cortex
Excerpt: (§1) EXAMPLE A: PROFILE OF BINDING TO IMIDAZOLINE I1 - AND I2 -RECEPTORS. (IN VITRO STUDY)
(§2) To measure in vitro the binding affinity of the compounds of the invention for I1 - and I2 -receptors, by determining the capacity of those compounds to displace specific radioligands of the imidazoline I1 - and I2 -receptors.
(§3) The following Table gives the radioligand used to label the receptor, the compound and the concentration selected to determine the non-specific fraction and the tissue selected.
(§4) Radioligand non specific
10^-5 M rabbit renal cortex

imidazoline I1-receptors = test: Binding to imidazoline I1-receptors, displacement of [3H]-clonidine (in vitro); settings: [3H]-clonidine + 10 μM norepinephrine; bovine lateral reticular nucleus
Excerpt: as §1, §2, §3, §4
10 μM of cold clonidine

dipole moment = type: physicochemical

Structure (SMILES)	Ki (imidazoline I2-receptors) [µM]	Ki (imidazoline I1-receptors) [µM]	pKa (pKa)	dipole moment (dipole moment; benzene) [D]	dipole moment (dipole moment; dioxane) [D]	logP (log Po/w)
Cc1ccccc1OCC1CN=C(N)O1 (single isomer, unassigned) [Example 29, 5-[(2-METHYLPHENOXY)METHYL]-4,5-DIHYDRO-OXAZOL-2-YLAMINE]	7.5	0.0058				
NC1=NCC(COc2ccccc2F)O1 (stereo not drawn) [Example 20, 5-[(2-FLUOROPHENOXY)METHYL]-4,5-DIHYDRO-OXAZOL-2-YLAMINE]	1.3	0.21				
Cc1ccc(C)c(OCC2CN=C(N)O2)c1 (stereo not drawn) [Example 16, 5-[(2,5-DIMETHYLPHENOXY)METHYL]-4,5-DIHYDRO-OXAZOL-2-YLAMINE]	1.6	0.085				
CCCNC1=NCC(COc2ccccc2C)O1 (stereo not drawn) [Example 26, N-n-PROPYL-N-[5-(2-METHYLPHENOXY)METHYL-4,5-DIHYDRO-OXAZOL-2-YL]AMINE]	1.4	0.67				
N#Cc1ccccc1OCC1CN=C(N)O1 (stereo not drawn) [Example 22, 5-[(2-CYANOPHENOXY)METHYL]-4,5-DIHYDRO-OXAZOL-2-YLAMINE]	2.4	0.048				
Cc1cccc(OCC2CN=C(N)O2)c1C (stereo not drawn) [Example 13, 5-[(2,3-DIMETHYLPHENOXY)METHYL]-4,5-DIHYDRO-OXAZOL-2-YLAMINE]	0.45	0.064				
CC(C)c1ccccc1OCC1CN=C(N)O1 (stereo not drawn) [Example 19, 5-[(2-ISOPROPYLPHENOXY)METHYL]-4,5-DIHYDRO-OXAZOL-2-YLAMINE]	2.1	0.12				
Cc1ccccc1OCC1CN=C(N)O1 (single isomer, unassigned) [Example 28, 5-[(2-METHYLPHENOXY)METHYL]-4,5-DIHYDRO-OXAZOL-2-YLAMINE]	13	0.37				
CCNC1=NCC(COc2ccccc2C)O1 (stereo not drawn) [Example 27, N-ETHYL-N-[5-(2-METHYLPHENOXY)METHYL-4,5-DIHYDRO-OXAZOL-2-YL]AMINE]	1	0.17				
NC1=NCC(COc2ccccc2[N+](=O)[O-])O1 (stereo not drawn) [Example 21, 5-[(2-NITROPHENOXY)METHYL]-4,5-DIHYDRO-OXAZOL-2-YLAMINE]	3.9	0.5				
Cc1cccc(C)c1OCC1CN=C(N)O1 (stereo not drawn) [Example 9, 5-[(2,6-DIMETHYLPHENOXY)METHYL]-4,5-DIHYDRO-OXAZOL-2-YLAMINE]	2.1	0.057				
Cc1ccc(OCC2CN=C(N)O2)c(C)c1 (stereo not drawn) [Example 10, 5-[(2,4-DIMETHYLPHENOXY)METHYL]-4,5-DIHYDRO-OXAZOL-2-YLAMINE]	3.9	0.16				
CCc1ccccc1OCC1CN=C(N)O1 (stereo not drawn) [Example 18, 5-[(2-ETHYLPHENOXY)METHYL]-4,5-DIHYDRO-OXAZOL-2-YLAMINE]	1.8	0.1				
CC(=O)c1ccccc1OCC1CN=C(N)O1 (stereo not drawn) [Example 23, 5-[(2-ACETYLPHENOXY)METHYL]-4,5-DIHYDRO-OXAZOL-2-YLAMINE]	7.7	0.17				
Cc1cc(Cl)ccc1OCC1CN=C(N)O1 (stereo not drawn) [Example 17, 5-[(4-CHLORO-2-METHYLPHENOXY)METHYL]-4,5-DIHYDRO-OXAZOL-2-YLAMINE]	1	0.12				
Cc1ccccc1OCC1CN=C(N)O1 (racemic) [Example 1, 5-[(2-METHYLPHENOXY)METHYL]-4,5-DIHYDRO-OXAZOL-2-YLAMINE]	0.92	0.0085	8.54	1.80	2.07	1.69
